The supplement of paper PMC10733146

Key:
Assay in all cases: viability relative to DMSO control (fraction); higher = less drug effect (more viable cells)
Conditions in all cases: 48 h
[1] = system: primary AML patient cells (S091)
Outline: (§1)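 Cells were incubated for 48 h at 37 °C and 5% CO2 in RPMI-1640 with penicillin/streptomycin, L-glutamine and human serum, at 4 × 10^4 cells per well in 384-well plates with compounds pre-plated at five concentrations, one well each. These were primary mononuclear tumour cells, fresh or cryopreserved, Ficoll-isolated from blood or bone marrow or obtained from processed lymph node. Viability values are CellTiter-Glo luminescence relative to the median of 16 inner DMSO wells.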

[2] = system: primary AML patient cells (S002)
Outline: as §1

[3] = system: primary T-PLL patient cells (S008)
Outline: as §1

[4] = system: primary DLBCL patient cells (S076)
Outline: as §1

[5] = system: primary AML patient cells (S025)
Outline: as §1

[6] = system: primary FL patient cells (S022)
Outline: as §1

[7] = system: primary DLBCL patient cells (S049)
Outline: as §1

[8] = system: primary AML patient cells (S037)
Outline: as §1

[9] = system: primary AML patient cells (S019)
Outline: as §1

[10] = system: primary AML patient cells (S089)
Outline: as §1

[11] = system: primary AML patient cells (S021)
Outline: as §1

[12] = system: primary ALL patient cells (S048)
Outline: as §1

[13] = system: primary MCL patient cells (S068)
Outline: as §1

[14] = system: primary AML patient cells (S011)
Outline: as §1

[15] = system: primary AML patient cells (S081)
Outline: as §1

[16] = system: primary AML patient cells (S055)
Outline: as §1

[17] = system: primary T-NHL patient cells (S058)
Outline: as §1

Work on `C[C@@H](Oc1cc(-c2cnn(C3CCNCC3)c2)cnc1N)c1c(Cl)ccc(F)c1Cl` [Crizotinib] yielded a viability ([1]; 0.024 µM) of 0.922, a viability ([1]; 0.12 µM) of 0.97 and a viability ([1]; 0.6 µM) of 0.817. For the same compound, the viability ([1]; 3 µM) was 0.249, the viability ([1]; 15 µM) was 0.0707 and the viability ([2]; 0.024 µM) was 1.04. It also gave a viability ([2]; 0.12 µM) of 1.08, a viability ([2]; 0.6 µM) of 1.01 and a viability ([2]; 3 µM) of 0.928. The viability ([2]; 15 µM) was 0.652, the viability ([3]; 0.024 µM) was 0.983 and the viability ([3]; 0.12 µM) was 1.02. The viability ([3]; 0.6 µM) was 0.969, the viability ([3]; 3 µM) was 0.955 and the viability ([3]; 15 µM) was 0.655. It also gave a viability ([4]; 0.024 µM) of 0.938, a viability ([4]; 0.12 µM) of 1.03 and a viability ([4]; 0.6 µM) of 0.999. For the same compound, the viability ([4]; 3 µM) was 0.77, the viability ([4]; 15 µM) was 0.17 and the viability ([5]; 0.024 µM) was 0.983. For the same compound, the viability ([5]; 0.12 µM) was 1.05, the viability ([5]; 0.6 µM) was 1.02 and the viability ([5]; 3 µM) was 0.94. The viability ([5]; 15 µM) was 0.794, the viability ([6]; 0.024 µM) was 1.09 and the viability ([6]; 0.12 µM) was 1.06. It also gave a viability ([6]; 0.6 µM) of 1.09, a viability ([6]; 3 µM) of 0.959 and a viability ([6]; 15 µM) of 0.377. It also gave a viability ([7]; 0.024 µM) of 1.04, a viability ([7]; 0.12 µM) of 1.08 and a viability ([7]; 0.6 µM) of 1.04. It also gave a viability ([7]; 3 µM) of 0.98, a viability ([7]; 15 µM) of 0.0442 and a viability ([8]; 0.024 µM) of 0.974. For the same compound, the viability ([8]; 0.12 µM) was 0.982, the viability ([8]; 0.6 µM) was 1.01 and the viability ([8]; 3 µM) was 0.937. It also gave a viability ([8]; 15 µM) of 0.586, a viability ([9]; 0.024 µM) of 0.982 and a viability ([9]; 0.12 µM) of 1.11. For the same compound, the viability ([9]; 0.6 µM) was 0.911, the viability ([9]; 3 µM) was 0.665 and the viability ([9]; 15 µM) was 0.298. For the same compound, the viability ([10]; 0.024 µM) was 0.935, the viability ([10]; 0.12 µM) was 0.93 and the viability ([10]; 0.6 µM) was 0.722. For the same compound, the viability ([10]; 3 µM) was 0.359, the viability ([10]; 15 µM) was 0.0318 and the viability ([11]; 0.024 µM) was 1.06. The viability ([11]; 0.12 µM) was 1.1, the viability ([11]; 0.6 µM) was 1.1 and the viability ([11]; 3 µM) was 0.831. It also gave a viability ([11]; 15 µM) of 0.345, a viability ([12]; 0.024 µM) of 0.999 and a viability ([12]; 0.12 µM) of 1.04. For the same compound, the viability ([12]; 0.6 µM) was 0.989, the viability ([12]; 3 µM) was 0.638 and the viability ([12]; 15 µM) was 0.0947. The viability ([13]; 0.024 µM) was 0.989, the viability ([13]; 0.12 µM) was 1.22 and the viability ([13]; 0.6 µM) was 1.58. It also gave a viability ([13]; 3 µM) of 1.72, a viability ([13]; 15 µM) of 0.816 and a viability ([14]; 0.024 µM) of 0.996. For the same compound, the viability ([14]; 0.12 µM) was 1.04, the viability ([14]; 0.6 µM) was 0.822 and the viability ([14]; 3 µM) was 0.358. The viability ([14]; 15 µM) was 0.0468, the viability ([15]; 0.024 µM) was 0.9 and the viability ([15]; 0.12 µM) was 0.922. The viability ([15]; 0.6 µM) was 0.895, the viability ([15]; 3 µM) was 0.85 and the viability ([15]; 15 µM) was 0.386. It also gave a viability ([16]; 0.024 µM) of 0.948, a viability ([16]; 0.12 µM) of 0.954 and a viability ([16]; 0.6 µM) of 0.999. For the same compound, the viability ([16]; 3 µM) was 0.683, the viability ([16]; 15 µM) was 0.524 and the viability ([17]; 0.024 µM) was 0.908. It also gave a viability ([17]; 0.12 µM) of 1.01, a viability ([17]; 0.6 µM) of 0.903 and a viability ([17]; 3 µM) of 0.812. For the same compound, the viability ([17]; 15 µM) was 0.335.
